According to US10464890B2, “PGAM1 inhibitors and methods related thereto” (Emory University, priority 2011, dated 2019):
Entries after “also recorded” stand apart in the source; their conditions may differ.

Experiments:
PGAM1 = PGAM1 (Homo sapiens, UniProt P18669); experiment: Thermal melt shift assay, PGAM1; assay type: binding; conditions: increasing concentrations, […] to 80 μM
Method: In brief, thermal shift assay of compound-protein interaction was performed in 384-well PCR plates with various compound concentrations and 200 μg/ml protein in a buffer solution (20 mM Tris-HCl, 100 mM NaCl, pH 7.4). SYPRO orange was used as a dye to monitor the fluorescence change at 610 nm. Small molecules were dissolved in DMSO and added to protein solution. Final DMSO concentration of solution is 1%. Dissociation constants (Kds) for protein-ligand interaction were calculated using the method as described.
The fluorescence intensity data were fitted to Eq. (1) to obtain ΔHu, ΔCpu, and Tm by nonlinear regression using the program Prism:
The thermal unfolding parameters for 6PGD and PGAM1 alone were determined from 4 control wells, each containing 0.2 mg/mL protein.

[1] = system: diverse human cancer and leukemia cells; experiment: Cell proliferation of diverse cancer and leukemia cells; assay type: cell-based; conditions: diverse human cancer and leukemia cells incl. H1299, KG1a, 212LN; 72h
Method: For leukemia cell proliferation assay, 10×10^4 cells were seeded in non-tissue culture coated 6-well plate and incubated at 37° C. for indicated times. Cell numbers were counted by trypan blue exclusion under a microscope (×40) at indicated times and the percentage of cell proliferation was determined by comparing PGAM1 knockdown cells to pLKO.1 vector expressing cells. […] Cell viability was determined by counting drug-treated cells compared to DMSO-treated control cells with trypan blue exclusion under a microscope (×40) and by using CellTiter96Aqueous One solution proliferation kit (Promega). For adherent cell proliferation assay such as H1299 and MDA-MB231 cells, 5×10^4 cells were seeded in 6-well plate 24 h before the assay starts and were cultured at 37° C. 24 h after seeding, cells were treated with 5 μM Methyl-2PG and incubated at 37° C. for indicated times. Cell proliferation was determined by the increase in cell number indicated times after the treatment starts compared to that at the treatment starts for each cell line (T=0). Cell numbers were counted by trypan blue exclusion under a microscope (×40). […] Cell viability was determined by counting drug-treated cells compared to DMSO-treated control cells with trypan blue exclusion under a microscope (×40). […] Cell viability was determined by using CellTiter96Aqueous One solution proliferation kit (Promega).

H1299 cells xenograft = experiment: H1299 xenograft in nude mice; assay type: in vivo
[2] = Toxicity studies in nude mice; assay type: in vivo
Method: Peripheral blood samples were collected and applied for analysis of hematological properties. The vital organs were collected for histo-pathological analysis. […] Images were analyzed and captured using ImageScope software (Aperio Technologies Inc.) without any additional or subsequent image processing (high power images are 20×; low power images are either 4.0×, 4.2×, or 4.4×). Scale bars are indicated.
An in vivo drug treatment experiment was performed. […] Xenograft experiments were performed by injecting H1299 cells to nude mice.

[3] = system: H1299 cells with stable knockdown of PGAM1; experiment: 14C-serine synthesis assay; assay type: cell-based, human; conditions: methyl-2-PG
Method: Serine synthesis flux from ^14C glucose was measured as described previously (Parry, 1957) with modification. Sub-confluent cells seeded on a 6 cm dish were incubated in complete medium spiked with 40 μCi/ml of D-[U-^14C]-glucose overnight. The incubated cells were lysed with hypotonic lysis buffer (20 mM HEPES (pH 7.0), 5 mM KCl, 1 mM MgCl2, 5 mM DTT, and protease inhibitor cocktail), and the cell lysates were spun down by centrifugation to remove cell debris. The supernatant containing 100 μg of total protein was spotted onto Whatman 3MM paper. One-dimensional chromatogram was run in water saturated phenol, and two-dimentional chromatogram was run in 1-butanol:acetic acid:water solution at the ratio of 100:22:50. L-serine (Sigma) was used as a standard. L-serine dissolved in hypotonic lysis buffer was spotted onto another paper, which was run under the same conditions in parallel with the cell lysate sample. Spots of amino acids were developed by ninhydrin reaction. The spot corresponding to serine was identified based on R^f values of L-serine standard, cut out from the paper, and directly subjected to scintillation counting.

[4] = 100 mg/kg/day i.p. for 21 days from 6 days post-injection, vs vehicle

PGAM1, sequence (P18669 whole entry): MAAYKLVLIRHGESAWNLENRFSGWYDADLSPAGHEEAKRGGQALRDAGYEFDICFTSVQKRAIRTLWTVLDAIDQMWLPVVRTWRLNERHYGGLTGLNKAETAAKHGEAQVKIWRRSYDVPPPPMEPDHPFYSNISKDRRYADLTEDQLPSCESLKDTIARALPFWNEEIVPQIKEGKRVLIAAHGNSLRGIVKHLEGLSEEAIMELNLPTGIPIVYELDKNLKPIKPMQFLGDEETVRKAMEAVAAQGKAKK

O=C1c2ccccc2C(=O)c2c1cc(S(=O)(=O)Nc1ccc(C(F)(F)F)cc1)c(O)c2O [PGMI-004A, N-(4-trifluoromethyl)-penyl-3,4-dihydroxy-9,10-dioxo-2-anthracenesulfonamide]
PGAM1 melting temperature (Tm) (PGAM1): raises PGAM1 melting temperature (Tm) in a dose-dependent manner | cell proliferation [1]: decreased cell proliferation | tumor growth (H1299 cells xenograft; [4]): significantly decreased | tumor size (H1299 cells xenograft; [4]): significantly decreased | PGAM1 enzyme activity in resected tumors (H1299 cells xenograft; xenograft nude mice treated with PGMI-004A): effectively inhibits PGAM1 enzyme activity | body weight, complete blood counts (CBC) or hematopoietic properties ([2]; 100 mg/kg/day for 7 days): did not result in significant alteration | histopathological analyses (kidney, lung, liver, spleen) ([2]; 100 mg/kg/day intraperitoneally for 7 days, vs vehicle): did not reveal significant differences; also recorded: no notable differences | tolerability ([2]; 100 mg/kg/day intraperitoneally, chronic injection for 4 weeks): well-tolerated

COC(=O)[C@@H](CO)OP(=O)(O)O [methyl-2-PG, methyl ester of D(+)-2-phosphoglyceric acid, reference compound]
serine biosynthesis [3]: rescues the phenotype
